The numbers were not newly measured in US10760135B2, “Methods for predicting pancreatic cancer treatment response” (priority 2016, dated 2020), which cites them from elsewhere.

Structures can show the parent of a compound that is named as a salt.

The data set has as its system advanced PDAC. The conditions noted are these: first-line treatment, patients with advanced PDAC.

In the case of `Nc1ccn([C@@H]2O[C@H](CO)[C@@H](O)C2(F)F)c(=O)n1` [Gemcitabine, 1-(2′-Deoxy-2′,2′-difluoro-[beta]-D-ribofuranosyl)-4-aminopyrimidin-2-one hydrochloride], the 5-year survival rate is 2%.
